Measured values reported in patent EP0498830B1, “GLUTAMIC AND ASPARTIC ACID DERIVATIVES WITH ANTIGASTRIN ACTIVITY AND A METHOD FOR THEIR PREPARATION” (ROTTA RESEARCH LABORATORIUM S.P.A., priority 1989, dated 1991).
Values after ≈ are worked out from the molar mass of the structure shown. Read-outs that look alike come from different tables or passages of the source. Values belong to the compound of their own block, whether it stands above or below them.

What was measured:
fundic mucosa [1] = experiment: Pentagastrin-induced hyperplasia of the fundic mucosa in tumour-bearing mice; format: in vivo; conditions: pentagastrin alone, 250 mcg/ml twice a day, 20 days
Excerpt: (§1) Male mice weighing 20-25g were inoculated subcutaneously in the interscapular region with a suspension of 8 x 10⁴ tumour cells of a mouse colic adenocarcinoma. […] After 20 days, the animals were killed and the fundic mucosa and the tumours were removed, weighed and extracted in order to determine their DNA content.

[2] = test system: mouse colic adenocarcinoma; experiment: Pentagastrin-induced growth of transplanted colic tumour in mice; format: in vivo; conditions: pentagastrin alone, 250 mcg/ml twice a day, 20 days
Excerpt: as §1

[3] = target: T1, gastrin receptor sites on the parietal cell membranes of the fundic mucosa of a guinea-pig stomach (Cavia porcellus, UniProt H0VZC5); experiment: Inhibition of binding of tritiated pentagastrin to isolated guinea-pig gastric glands; set-up: from tissue; host or cells: isolated guinea-pig gastric (fundic) glands; conditions: displacement of 50% of pentagastrin tritiate; 30 minutes at 25°C
T1 sequence (H0VZC5 1-426): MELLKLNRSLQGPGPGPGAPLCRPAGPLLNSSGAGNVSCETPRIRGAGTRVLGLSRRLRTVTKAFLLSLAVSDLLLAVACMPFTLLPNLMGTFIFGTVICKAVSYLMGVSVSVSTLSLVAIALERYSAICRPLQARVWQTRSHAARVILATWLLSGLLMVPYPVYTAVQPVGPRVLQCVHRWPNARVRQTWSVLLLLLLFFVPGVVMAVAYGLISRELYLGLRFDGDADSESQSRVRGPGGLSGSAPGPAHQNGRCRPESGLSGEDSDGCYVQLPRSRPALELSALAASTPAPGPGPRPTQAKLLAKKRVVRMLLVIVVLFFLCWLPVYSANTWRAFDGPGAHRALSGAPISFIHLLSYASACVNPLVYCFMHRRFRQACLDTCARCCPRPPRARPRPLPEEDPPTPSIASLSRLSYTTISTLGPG
Description: (§2) The capacity of some of the compounds which are the subject of the invention to inhibit the binding of pentagastrin-[beta-alanyl-3-3H(N)] to the gastrin receptor sites on the parietal cell membranes of the fundic mucosa of a guinea-pig stomach was evaluated by comparison with the displacement of pentagastrin induced by proglumide, which is a reference antigastrin compound, by lorglumide, which is a powerful CCK antagonist mentioned above, and by the compound D5 which is the optical antipode (the L-series enantiomer) of the compound D1.
(§3) Male guinea pigs weighing about 400-500g were used. After the guinea pig had been killed, its stomach was removed and placed in oxygenated SPB buffer at 37°C (SPB = saline phosphate buffer: 149.6 mM NaCl, 3 mM K₂HPO₄, 0.64 mM NaH₂PO₄, pH 7.3).
(§4) After washing in the buffer, the stomach was placed on a petri dish and the antral part discarded.
The mucosa of the remaining part was removed from the underlying muscular part and was then chopped and transferred to a flask containing a collagenase digestion solution, 0.1% BSA and 0.2% glucose. […]
After the supernatant liquid had been removed by centrifuging, the radioactivity associated with the pellet was determined with a liquid scintillator. The specific binding was determined as the difference between the binding in the absence and in the presence of 10⁻⁶ M pentagastrin. […]

[4] = target: T2, central gastrin receptors (Mus musculus, UniProt P56481); experiment: Inhibition of binding of tritiated pentagastrin to mouse cerebral cortex membranes; set-up: Cerebral cortex membranes were therefore used and pentagastrin tritiate was again used as the ligand; from tissue; host or cells: mouse cerebral cortex membranes; species or system mice; conditions: displacement of pentagastrin tritiate; 40 minutes at 37°C
T2 sequence (P56481 1-453): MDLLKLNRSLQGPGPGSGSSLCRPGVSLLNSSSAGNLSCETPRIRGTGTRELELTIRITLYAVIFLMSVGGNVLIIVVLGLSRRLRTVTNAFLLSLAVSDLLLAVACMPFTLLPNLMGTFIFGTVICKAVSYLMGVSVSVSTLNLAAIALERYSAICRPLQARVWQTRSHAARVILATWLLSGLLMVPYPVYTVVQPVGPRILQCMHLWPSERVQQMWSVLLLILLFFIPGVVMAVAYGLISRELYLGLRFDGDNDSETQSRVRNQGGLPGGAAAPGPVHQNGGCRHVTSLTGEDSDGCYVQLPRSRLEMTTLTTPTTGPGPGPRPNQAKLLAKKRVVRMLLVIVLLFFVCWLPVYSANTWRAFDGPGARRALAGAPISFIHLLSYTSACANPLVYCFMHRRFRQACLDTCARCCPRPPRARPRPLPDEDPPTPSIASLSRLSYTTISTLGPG
Description: (§5) Cerebral cortex membranes were therefore used and pentagastrin tritiate was again used as the ligand.
(§6) Mouse cortex tissue was homogenised cold in 20 volumes of tris buffer (pH 7.7). After washing and centrifuging, the final pellet was resuspended in 20 volumes of binding buffer containing, inter alia, TRIS, BSA and bacitracin. 0.4 ml of the membrane thus obtained were then incubated with a radioactive tracer and with the compounds under test for 40 minutes at 37°C.
(§7) After the supernatant liquid had been removed by centrifuging, the radioactivity associated with the pellet was determined, again with a liquid scintillator. The specific binding is the difference between the binding in the absence and in the presence of 10⁻⁶M pentagastrin.
(§8) Again, this gives the IC50s of the compounds tested with the meaning as given above.

[5] = test system: gastric acid secretion induced by pentagastrin; experiment: Antisecretive activity in anaesthetised rats, stimulant pentagastrin; format: in vivo; conditions: for ED50: Rattus norvegicus, iv, pentagastrin 30 mcg/kg/h, I.V. bolus, anaesthetised rats, read-out: Antagonistic activity (ED50 mg/kg IV) towards gastric acid secretion induced by pentagastrin
Description: The antisecretive activity was determined in rats with the use of male animals weighing about 200g, anaesthetised with urethane. Gastric secretion was stimulated with pentagastrin. K.S. Lai's method (Gut 5, (1964), 327-341) was used, with slight modifications.
After tracheotomy, oesophageal and duodenal cannulae were inserted. A tepid solution (37°C) of 0.25 mM NaOH was perfused through the stomach by means of a peristaltic pump at a constant flow rate of 1 ml/minute. After stabilisation for 20 minutes, the dose of the stimulant, indicated in Table 3, dissolved in a physiological solution, was perfused for 120 minutes at a rate of 0.95 ml/hour. After 60 minutes of perfusion (basic stimulation), the products under test were administered intravenously (I.V.) in boli whilst the perfusion of the stimulant continued for a further 60 minutes. The acid secretion was recorded continuously as a function of time.
The activity of the product was evaluated as the reduction in the secreted acidity after administration of the product as a percentage of the basic acidity measured during the first 60 minutes of collection during which only pentagastrin was present.
The antagonistic compounds tested were administered in different doses so that an ID50 (that is the dose (in mg/Kg I.V.) which can inhibit the effect of the pentagastrin by 50% could be calculated.
The results thus obtained are given in the following table in which the activities of the compounds are expressed as ID50s under the stimulus of pentagastrin at 30 mcg/Kg/h.

[6] = test system: guinea-pig gall bladders stimulated in vitro by CCK-8; experiment: Anti-CCK activity on guinea-pig gall bladder contracted in vitro by CCK-8; conditions: for IC50 ACTIVITY: CCK-8 10 ng/ml, at least three tests per compound
Description: In order to check the hypothesis that the molecular conformation of the subject compounds is suitable to give them a specific antagonistic activity towards gastrin and not towards CCK, the anticontracturant activity of some of the compounds of the invention was tested on guinea-pig gall bladders stimulated in vitro by CCK-8.
A longitudinal strip of guinea-pig gall bladder was placed in a bath for isolated organs in the presence of Krebs at a temperature of 32°C, continuously oxygenated by an oxygen-CO₂ mixture (95-5 V/V).
The isometric contractions were detected by means of a force transducer and recorded.
The gall bladder was contracted with the use of a 10ng/ml concentration of CCK-8; the antagonistic activity of the compounds towards the contracturant effect of the CCK was determined with the use of different concentrations and the IC50 value, that is, the concentration in mcg/ml of the compound which is able to antagonise the contracturant effect of the CCK by 50%, thus determined.
The results obtained are set out in the table below which gives the compounds tested and the IC50s which were calculated by the regression method on a set of at least three tests for each compound investigated.

[7] = test system: guinea-pig gall bladders stimulated in vitro by CCK-8; conditions: CCK-8 10ng/ml; from U.S. Patent A-4 791 215; cited from earlier work
[8] = target: T1, gastrin receptor sites on the parietal cell membranes of the fundic mucosa of a guinea-pig stomach; experiment: Inhibition of binding of tritiated pentagastrin to isolated guinea-pig gastric glands; set-up: from tissue; host or cells: isolated gastric glands from guinea-pig fundic mucosa (collagenase digestion)
Description: as §2, §3, §4
The mucosa of the remaining part was removed from the underlying muscular part and was then chopped and transferred to a flask containing a collagenase digestion solution, 0.1% BSA and 0.2% glucose. The solution was incubated at 37°C for 10 minutes under agitation and a stream of 0₂.
During the incubation period, the tissue was passed several times through a series of pipettes with decreasing diameters in order to facilitate its digestion. At the end of the period, the tissue was removed and centrifuged at 1000 rpm. The supernatant liquid resulting from the centrifuging was discarded and the pellet washed several times with a washing buffer containing EPTA to remove the collagenase.
The glands were then isolated from the undigested tissue by conventional techniques, suspended in Hepes buffer for binding and incubated together with a radioactive tracer and the compounds under test for 30 minutes at 25°C.
After the supernatant liquid had been removed by centrifuging, the radioactivity associated with the pellet was determined with a liquid scintillator. The specific binding was determined as the difference between the binding in the absence and in the presence of 10⁻⁶ M pentagastrin.
The results obtained are shown in Table 1 which gives the IC50, that is, the concentration (in moles/litre) of the antagonist which can displace 50% of the pentagastrin tritiate from the receptor.

[9] = target: T2, central gastrin receptors; experiment: Inhibition of binding of tritiated pentagastrin to mouse cerebral cortex membranes; set-up: Mouse cortex tissue was homogenised cold in 20 volumes of tris buffer (pH 7.7); from tissue; host or cells: mouse cerebral cortex membranes; species or system mice; conditions: for IC50: displacement of pentagastrin tritiate, 40 minutes at 37°C
Description: as §5, §6, §7, §8

fundic mucosa [10] = experiment: Pentagastrin-induced hyperplasia of the fundic mucosa in tumour-bearing mice; format: in vivo; conditions: 20 days
Description: (§9) Male mice weighing 20-25g were inoculated subcutaneously in the interscapular region with a suspension of 8 x 10⁴ tumour cells of a mouse colic adenocarcinoma.
(§10) 5 groups each of 10 animals were used, that is : one control group of animals, one group of animals treated with 250 mcg/ml of pentagastrin twice a day and two groups of animals treated with the compound A-5 in doses of 15 and 30 mg/Kg i.p. respectively, twice a day, plus pentagastrin in the manner described above.
(§11) After 20 days, the animals were killed and the fundic mucosa and the tumours were removed, weighed and extracted in order to determine their DNA content.

[11] = test system: mouse colic adenocarcinoma; experiment: Pentagastrin-induced growth of transplanted colic tumour in mice; format: in vivo; conditions: 20 days
Description: as §9, §10, §11

in vivo = conditions: mouse, iv
mice = experiment: Acute toxicity LD50 IV in mice; conditions: LD50 IV mice / ID50 IV rats
[12] = displacement of 50% of pentagastrin tritiate, 30 minutes at 25°C, read-out: IC50
[13] = PEG + A-5 15 mg/Kg i.p. twice a day
[14] = PEG + A-5 30 mg/Kg i.p. twice a day

Compound: CSCC[C@H](NC(=O)[C@H](Cc1c[nH]c2ccccc12)NC(=O)CCNC(=O)OC(C)(C)C)C(=O)N[C@@H](CC(=O)O)C(=O)N[C@@H](Cc1ccccc1)C(N)=O [Pentagastrin]
FUNDIC DNA (fundic mucosa [1]): 0.44 ± 0.03 mg | WEIGHT OF THE FUNDIC MUCOSA (fundic mucosa [1]): 36.0 ± 4.2 mg | TUMOROUS DNA [2]: 4.48 ± 0.29 mg | WEIGHT OF THE COLIC TUMOUR [2]: 779.7 ± 27 mg | IC50 [3]: 0.41 nM | IC50 [4]: 0.78 nM

IC50 [8, 12]: 11000 nM | times less active than the most powerful compounds of the series ([8]; ratio of IC50s, gastric glands): about 200 times | IC50 [9]: 6100 nM | times less powerful than the most active compounds ([9]; ratio of IC50s, cortical membranes): about 100 times
Compound: CCCCCN(CCCCC)C(=O)C(CCC(=O)O)NC(=O)c1ccc(Cl)c(Cl)c1 (stereo not shown) [Lorglumide, reference compound]
ED50 [5]: > 100 mg/kg | activity against pentagastrin-induced acid secretion ([5]; up to a dose of 100 mg/Kg): completely inactive | IC50 ACTIVITY [6]: 0.06 µg/mL (≈ 0.131 µM) | concentration inhibiting by 50% the contraction induced by CCK-8 [7]: 0.06 µg/mL

IC50 [8, 12]: 80 nM | IC50 [9]: 96 nM
Compound: CC(C)(C)CCNC(=O)C(CCC(=O)O)NC(=O)c1cccc(Cl)c1 (racemic) [A5, ( ± )-4-[(3-chlorobenzoyl)-amino]-5-(3,3-dimethylbutylamino)-5-oxopentanoic acid]
ED50 [5]: 35 mg/kg | FUNDIC DNA (fundic mucosa [10]; [13]): 0.28 ± 0.02 mg | WEIGHT OF THE FUNDIC MUCOSA (fundic mucosa [10]; [13]): 25.1 ± 4.7 mg | FUNDIC DNA (fundic mucosa [10]; [14]): 0.23 ± 0.05 mg | WEIGHT OF THE FUNDIC MUCOSA (fundic mucosa [10]; [14]): 19.9 ± 2.1 mg | TUMOROUS DNA [11, 13]: 3.26 ± 0.49 mg | WEIGHT OF THE COLIC TUMOUR [11, 13]: 579.0 ± 40 mg | TUMOROUS DNA [11, 14]: 2.87 ± 0.2 mg | WEIGHT OF THE COLIC TUMOUR [11, 14]: 559.5 ± 43 mg

Compound: CCC(C)(CC)CCNC(=O)C(CCC(=O)O)NC(=O)c1cccc(Cl)c1 (racemic) [A13]
ED50 [5]: 33 mg/kg | IC50 ACTIVITY [6]: 32 µg/mL (≈ 80.6 µM) | concentration relative to that of lorglumide ([6]; times greater than lorglumide): about 500 times | IC50 [8]: 91 nM | IC50 [9]: 92 nM

Compound: CC(C)(C)CCNC(=O)[C@@H](CCC(=O)O)NC(=O)c1cccc(Cl)c1 [D1, D-4-(3-chlorobenzoylamino)-5-(3,3-dimethylbutylamino)-5-oxopentanoic acid]
ED50 [5]: 28 mg/kg | IC50 ACTIVITY [6]: 83 µg/mL (≈ 225 µM) | LD50 (in vivo): ~600 mg/kg | toxic dose (LD50) relative to the antigastrin dose (ID50) (mice): about 20 times | IC50 [8, 12]: 53 nM | times more active than the corresponding L-enantiomers (compound D5) ([9]; cortical membranes): about 10 times | IC50 [9]: 61 nM
